Holding throughout (assay type): in vivo
For series [1], the system named is Myzus persicae (green peach aphid). Description: Myzus persicae (green peach aphid) sunflower leaf disc spray test. The note with it: for control (mortality): 200 ppm spray on sunflower leaf discs, aphid population of mixed ages, 6 DAT; for mortality at 200 ppm: Myzus persicae, foliar, 144 h, read-out: control (mortality). Here is the method: Sunflower leaf discs were placed on agar in a 24-well microtiter plate and sprayed with test solutions at an application rate of 200 ppm. After drying, the leaf discs were infested with an aphid population of mixed ages. After an incubation period of 6 DAT, samples were checked for mortality. The following compounds gave 100% control: 1.001, 1.002, 1.003, 1.004, 1.005, 1.006, 1.008, 1.009, 1.012, 1.013, 1.014, 1.016, 1.017 and 1.018. The following compounds gave 80% control: 1.007 and 1.011. The following compound gave 50% control: 1.010

Series [2] relates to Tetranychus urticae (two-spotted spider mite). Description: Tetranychus urticae (two-spotted spider mite) bean leaf disc spray test. The settings on record: for mortality at 200 ppm: Tetranychus urticae, foliar, 192 h, read-out: control (egg mortality, larval mortality, adult mortality). The text has this: Bean leaf discs on agar in 24-well microtiter plates wer sprayed with test solutions at an application rate of 200 ppm. After drying, the leaf discs are infested with mite populations of mixed ages. 8 days later, discs are checked for egg mortality, larval mortality, and adult mortality. The following compounds gave 100% control: 1.001, 1.002, 1.003, 1.004, 1.006, 1.008, 1.009, 1.010, 1.012, 1.013, 1.014, 1.016, 1.017 and 1.018. The following compound gave 50% control: 1.011.

Series [3] relates to Heliothis virescens (tobacco budworm). Description: Heliothis virescens (tobacco budworm) egg/larva test on artificial diet. The note with it: for control (egg mortality, larval mortality, growth regulation): 200 ppm by pipetting, eggs 0-24 h old on artificial diet, 4 days incubation; for mortality at 200 ppm: Heliothis virescens, read-out: control (egg mortality, larval mortality, growth regulation). Here is the method: Eggs (0-24 h old) were placed in 24-well microtiter plate on artificial diet and treated with test solutions at an application rate of 200 ppm by pipetting. After an incubation period of 4 days, samples were checked for egg mortality, larval mortality, and growth regulation. The following compounds gave 100% control: 1.003 and 1.009. The following compounds gave 80% control: 1.001, 1.004, 1.005, 1.008 and 1.016. The following compounds gave 50% control: 1.013 and 1.017.

Series [4] deals with Myzus persicae (green peach aphid). Description: Myzus persicae (green peach aphid) pea seedling root uptake test. The settings on record: for control (mortality): 24 ppm test solution, roots of infested pea seedlings, 6 days after introduction; for mortality at 24 ppm: Myzus persicae, 144 h, read-out: control (mortality). The text has this:
Roots of pea seedlings, infested with an aphid population of mixed ages, were placed directly in the test solutions of 24 ppm. 6 days after introduction, samples were checked for mortality. The following compounds gave 100% control: 1.004 and 1.012. The following compounds gave 80% control: 1.001, 1.002, 1.009, 1.013 and 1.016. The following compound gave 50% control: 1.003.

As to `CCC(Oc1cccc([N+](=O)[O-])c1Cl)C1=NCCN1C(=O)OC(C)(C)C` (stereo not drawn) [Compound 1.011], the “control (mortality)” value in series [1] is given as 80%. Further, the “control (egg mortality, larval mortality, adult mortality)” value in series [2] (200 ppm spray on bean leaf discs, mite populations of mixed ages, 8 days) came to 50%.

With `COCC(Oc1cccc([N+](=O)[O-])c1Cl)C1=NCCN1` (stereo not drawn) [Compound 1.017], the “control (egg mortality, larval mortality, growth regulation)” value in series [3] is recorded as 50%.

As for `CCC(Oc1cccc([N+](=O)[O-])c1C)C1=NCCN1` (stereo not drawn) [Compound 1.001], the “control (mortality)” value in series [4] was 80%. The “control (egg mortality, larval mortality, growth regulation)” value in series [3] is given as 80%.

Take `Cc1c(OC(C2=NCCN2)C(C)C)cccc1[N+](=O)[O-]` (stereo not drawn) [Compound 1.002]: in series [4], the “control (mortality)” value was found to be 80%.

As to `COCC(Oc1cccc([N+](=O)[O-])c1C)C1=NCCN1` (stereo not drawn) [Compound 1.012, 2-[2-Methoxy-1-(2-methyl-3-nitro-phenoxy)-ethyl]-4,5-dihydro-1H-imidazole], the mortality at 24 ppm in series [4] was found to be 100%. The mortality at 200 ppm in series [1] and in series [2] was 100% in each case.

As to `CCCC(Oc1cccc([N+](=O)[O-])c1Cl)C1=NCCN1C(=O)OC(C)(C)C` (stereo not drawn) [Compound 1.010], the “control (mortality)” value in series [1] came out at 50%.

Turning to `CCC(Oc1cccc([N+](=O)[O-])c1Cl)C1=NCCN1` (stereo not drawn) [Compound 1.008, 2-[1-(2-Chloro-3-nitro-phenoxy)-propyl]-4,5-dihydro-1H-imidazole], the mortality at 200 ppm in series [3] was 80%; in series [1], 100%; in series [2] it was 100%.

For the compound `CCC(Oc1cccc([N+](=O)[O-])c1C)C1=NCCN1C(=O)OC(C)(C)C` (stereo not drawn) [Compound 1.007], the “control (mortality)” value in series [1] came to 80%.

Take `CCCC(Oc1cccc([N+](=O)[O-])c1Cl)C1=NCCN1` (stereo not drawn) [Compound 1.009]: the “control (mortality)” value in series [4] was determined as 80%. Moreover, the “control (egg mortality, larval mortality, growth regulation)” value in series [3] worked out at 100%.

Turning to `C=CCC(Oc1cccc([N+](=O)[O-])c1C)C1=NCCN1` (stereo not drawn) [Compound 1.013], the “control (mortality)” value in series [4] is 80%. For the same compound, the “control (egg mortality, larval mortality, growth regulation)” value in series [3] is 50%.

As for `C=CCC(Oc1cccc([N+](=O)[O-])c1Cl)C1=NCCN1` (stereo not drawn) [Compound 1.016, 2-[1-(2-Chloro-3-nitro-phenoxy)-but-3-enyl]-4,5-dihydro-1H-imidazole], the mortality at 24 ppm in series [4] was found to be 80%. The mortality at 200 ppm in series [3] amounted to 80%; in series [1] it was 100%; in series [2] it was 100%.

With `Cc1c(OC(C2=NCCN2)C2CC2)cccc1[N+](=O)[O-]` (stereo not drawn) [Compound 1.003], in series [4], the “control (mortality)” value worked out at 50%. The “control (egg mortality, larval mortality, growth regulation)” value in series [3] was determined as 100%.

Take `CCCCC(Oc1cccc([N+](=O)[O-])c1C)C1=NCCN1` (stereo not drawn) [Compound 1.005]: in series [3], the “control (egg mortality, larval mortality, growth regulation)” value was found to be 80%.

Turning to `CCCC(Oc1cccc([N+](=O)[O-])c1C)C1=NCCN1` (stereo not drawn) [Compound 1.004], in series [4], the “control (mortality)” value amounted to 100%. In addition, the “control (egg mortality, larval mortality, growth regulation)” value in series [3] came to 80%.

What is called mortality is the percentage killed.

For the origin of these results see patent publication US20100267795A1, “NITROSUBSTITUTED ARYLOXYALKYLIMIDAZOLINES FOR USE AS PESTICIDES” (SYNGENTA CROP PROTECTION, INC., priority 2007, published 2010).
